Laboratory results taken from patent publication US4559323A, “A41030 Antibiotics” (Eli Lilly and Company, priority 1984, dated 1985).
In brackets after ≈: the same amount, converted by molar mass. Where two headings read alike, the source gives them in different places.

What was measured:
[1] = test system: Peptostreptococcus intermedius; assay: Agar-dilution MIC (anaerobes); assay type: cell-based
Solubility in solvents = assay type: physicochemical; details: solvents as named
Source text: The seven antibiotic factors are recovered from the fermentation and are obtained as a mixture, the A41030 complex. It will be recognized that the ratio of the factors in the A41030 complex will vary, depending upon the fermentation conditions used. The individual factors […], and G are separated and isolated as individual compounds, as hereinafter described.

Bacteroides vulgatis = assay: Agar-dilution MIC (anaerobes); assay type: cell-based; details: Table 14; Bacteroides vulgatis 1211
[2] = test system: Fusobacterium necrophorum; assay: Agar-dilution MIC (anaerobes); assay type: cell-based; details: Table 14; Fusobacterium necrophorum 6054A
Clostridium septicum = assay: Agar-dilution MIC (anaerobes); assay type: cell-based; details: Table 14; Clostridium septicum 1128
[3] = Electrometric titration (pKa); assay type: physicochemical; details: electrometric titration in 66% dimethylformamide in water
Clostridium difficile = assay type: cell-based; details: Table 14; Clostridium difficile 2994
Fusobacterium symbiosum = assay: Agar-dilution MIC (anaerobes); assay type: cell-based; details: Table 14; Fusobacterium symbiosum 1470
Peptococcus prevoti = assay: Agar-dilution MIC (anaerobes); assay type: cell-based
B. thetaiotaomicron = assay type: cell-based
Source text: (§1) The agar-dilution procedure described by the International Collaborative study (ICS) group was used to determine the minimum inhibitory concentrations (MIC's).

Pc. constellatus = assay: Agar-dilution MIC (anaerobes); assay type: cell-based, Peptococcus constellatus; details: Table 15; Pc. constellatus 1468
Experimental: The MIC values were determined by the agar-dilution method, and are recorded in Table 15, which follows.

Bacteroides corrodens = assay: Agar-dilution MIC (anaerobes); assay type: cell-based; details: Table 14; Bacteroides corrodens 1874
Bacteroides fragilis = assay: Agar-dilution MIC (anaerobes); assay type: cell-based
Source text: as §1

Salmonella typhi = assay: Agar-dilution MIC; assay type: cell-based; details: Table 17, 24 hours
S. pyogenes = assay: In vivo oral activity against S. pyogenes in mice
Hemophilus influenzae = assay: Agar-dilution MIC; assay type: cell-based; details: Table 9

Compound: NC1C(=O)NC2Cc3ccc(c(Cl)c3)Oc3cc4cc(c3O)Oc3ccc(cc3Cl)C(O)C3NC(=O)C(NC(=O)C4NC(=O)C(NC2=O)c2cc(O)cc(c2)Oc2cc1ccc2O)c1cc(Cl)c(O)c(c1)-c1c(O)cc(O)cc1C(C(=O)O)NC3=O (centres unmarked) [A41030 factor A]
- MIC ([1]; Table 14, Peptostreptococcus intermedius 1264): 1.0 µg/mL (≈ 0.811 µM)
- MIC ([1]; Table 15, Ps. intermedius 1264): ≤ 0.03 µg/mL
- MIC ([1]; Table 15, Ps. intermedius 1524): 0.5 µg/mL (≈ 0.405 µM)
- MIC ([1]; Table 15, Ps. intermedius 1624): 1.0 µg/mL (≈ 0.811 µM)
- Solubility (Solubility in solvents): soluble in alcohol-water mixtures, in dimethylsulfoxide, in dimethylformamide, in dimethylsulfoxide-water mixtures, in dimethylformamide-water mixtures, in dilute aqueous acid, and in dilute aqueous base
- MIC (Bacteroides vulgatis): 32 µg/mL (≈ 25.9 µM)
- MIC [2]: 8 µg/mL (≈ 6.49 µM)
- MIC (Clostridium septicum): 2 µg/mL (≈ 1.62 µM)
- pKa, first titratable group [3]: about 5.53
- pKa, second titratable group [3]: ~7.60
- pKa, third titratable group [3]: ~10.37
- MIC (Clostridium difficile): 32 µg/mL (≈ 25.9 µM)
- MIC (Fusobacterium symbiosum): 1.0 µg/mL (≈ 0.811 µM)
- MIC (Peptococcus prevoti; Table 14, Peptococcus prevoti 1281): ≤ 0.25 µg/mL
- MIC (Peptococcus prevoti; Table 15, Pc. prevoti 1281): 0.5 µg/mL (≈ 0.405 µM)
- MIC (Peptococcus prevoti; Table 15, Pc. prevoti 1293): 1.0 µg/mL (≈ 0.811 µM)
- MIC (Peptococcus prevoti; Table 15, Pc. prevoti 1407): 1.0 µg/mL (≈ 0.811 µM)
- MIC (B. thetaiotaomicron; Table 12, 24-hour, B. thetaiotaomicron 1438): 64 µg/mL (≈ 51.9 µM)
- MIC (B. thetaiotaomicron; Table 12, 24-hour, B. thetaiotaomicron 1900A): 128 µg/mL (≈ 104 µM)
- MIC (B. thetaiotaomicron; Table 14, Bacteroides thetalotaomicron 1438): 64 µg/mL (≈ 51.9 µM)
- MIC (Pc. constellatus): 0.5 µg/mL (≈ 0.405 µM)
- MIC (Bacteroides corrodens): 64 µg/mL (≈ 51.9 µM)
- MIC (Bacteroides fragilis; Table 12, 24-hour, B. fragilis 2): 64 µg/mL (≈ 51.9 µM)
- MIC (Bacteroides fragilis; Table 12, 24-hour, B. fragilis 9): 64 µg/mL (≈ 51.9 µM)
- MIC (Bacteroides fragilis; Table 12, 24-hour, B. fragilis 103): 32 µg/mL (≈ 25.9 µM)
- MIC (Bacteroides fragilis; Table 12, 24-hour, B. fragilis 104): 32 µg/mL (≈ 25.9 µM)
- MIC (Bacteroides fragilis; Table 12, 24-hour, B. fragilis 106): 64 µg/mL (≈ 51.9 µM)
- MIC (Bacteroides fragilis; Table 12, 24-hour, B. fragilis 107): 32 µg/mL (≈ 25.9 µM)
- MIC (Bacteroides fragilis; Table 12, 24-hour, B. fragilis 108): 32 µg/mL (≈ 25.9 µM)
- MIC (Bacteroides fragilis; Table 12, 24-hour, B. fragilis 110): 64 µg/mL (≈ 51.9 µM)
- MIC (Bacteroides fragilis; Table 12, 24-hour, B. fragilis 111): 32 µg/mL (≈ 25.9 µM)
- MIC (Bacteroides fragilis; Table 12, 24-hour, B. fragilis 112): 64 µg/mL (≈ 51.9 µM)
- MIC (Bacteroides fragilis; Table 12, 24-hour, B. fragilis 113): 32 µg/mL (≈ 25.9 µM)
- MIC (Bacteroides fragilis; Table 12, 24-hour, B. fragilis 1451): 64 µg/mL (≈ 51.9 µM)
- MIC (Bacteroides fragilis; Table 12, 24-hour, B. fragilis 1470): 64 µg/mL (≈ 51.9 µM)
- MIC (Bacteroides fragilis; Table 12, 24-hour, B. fragilis 1877): 32 µg/mL (≈ 25.9 µM)
- MIC (Bacteroides fragilis; Table 12, 24-hour, B. fragilis 9032): 64 µg/mL (≈ 51.9 µM)
- MIC (Bacteroides fragilis; Table 14, Bacteroides fragilis 111): 128 µg/mL (≈ 104 µM)
- MIC (Bacteroides fragilis; Table 14, Bacteroides fragilis 1877): 32 µg/mL (≈ 25.9 µM)
- MIC (Bacteroides fragilis; Table 14, Bacteroides fragilis 1936B): 64 µg/mL (≈ 51.9 µM)
- MIC (Salmonella typhi; Salmonella typhi 1335): > 128 µg/mL
- MIC (Salmonella typhi; Salmonella typhi X514): > 128 µg/mL
- in vivo oral activity (S. pyogenes): > 300 mg./kg.X2
- MIC (Hemophilus influenzae; strain 75-312): 8 µg/mL (≈ 6.49 µM)
- MIC (Hemophilus influenzae; strain 75-313): 16 µg/mL (≈ 13 µM)
- MIC (Hemophilus influenzae; strain 75-364): 16 µg/mL (≈ 13 µM)
- MIC (Hemophilus influenzae; strain 75-465): 32 µg/mL (≈ 25.9 µM)
- MIC (Hemophilus influenzae; strain 75-19300): 16 µg/mL (≈ 13 µM)
- MIC (Hemophilus influenzae; strain 75-90383): 16 µg/mL (≈ 13 µM)
- MIC (Hemophilus influenzae; strain 4842): 8 µg/mL (≈ 6.49 µM)
- MIC (Hemophilus influenzae; strain A. Hall): 16 µg/mL (≈ 13 µM)
- MIC (Hemophilus influenzae; strain Bruno): 16 µg/mL (≈ 13 µM)
- MIC (Hemophilus influenzae; strain G. Newton): 32 µg/mL (≈ 25.9 µM)
- MIC (Hemophilus influenzae; strain Howard): 16 µg/mL (≈ 13 µM)
- MIC (Hemophilus influenzae; strain Miller): 16 µg/mL (≈ 13 µM)
- MIC (Hemophilus influenzae; strain O. Steele): 16 µg/mL (≈ 13 µM)
- MIC (Hemophilus influenzae; strain P. Wylie): 16 µg/mL (≈ 13 µM)
- MIC (Hemophilus influenzae; strain R251): 16 µg/mL (≈ 13 µM)
- MIC (Hemophilus influenzae; strain R259): 16 µg/mL (≈ 13 µM)
